One assay deals with EGFR L858R (Homo sapiens (Human), UniProt P00533, L858R). Put plainly: HTRF-based EGFR biochemical assay (L858R). The following applies: 100 μM ATP, enzyme 0.1 nM. In a few lines: (§1)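 Mutant EGFR (L858R 0.1 nM, L858R/T790M 0.02 nM) preincubated 30 min with compounds at room temperature in HEPES pH 7.0 buffer with Mg2+/Mn2+, then reacted 20 min with 1 μM biotinylated tyrosine kinase peptide and 100 μM ATP. Phosphorylation read by HTRF (Eu-cryptate anti-phosphotyrosine/streptavidin-XL665, 665/620 nm) after EDTA quench.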
EGFR L858R, sequence (P00533 25-1210 L858R): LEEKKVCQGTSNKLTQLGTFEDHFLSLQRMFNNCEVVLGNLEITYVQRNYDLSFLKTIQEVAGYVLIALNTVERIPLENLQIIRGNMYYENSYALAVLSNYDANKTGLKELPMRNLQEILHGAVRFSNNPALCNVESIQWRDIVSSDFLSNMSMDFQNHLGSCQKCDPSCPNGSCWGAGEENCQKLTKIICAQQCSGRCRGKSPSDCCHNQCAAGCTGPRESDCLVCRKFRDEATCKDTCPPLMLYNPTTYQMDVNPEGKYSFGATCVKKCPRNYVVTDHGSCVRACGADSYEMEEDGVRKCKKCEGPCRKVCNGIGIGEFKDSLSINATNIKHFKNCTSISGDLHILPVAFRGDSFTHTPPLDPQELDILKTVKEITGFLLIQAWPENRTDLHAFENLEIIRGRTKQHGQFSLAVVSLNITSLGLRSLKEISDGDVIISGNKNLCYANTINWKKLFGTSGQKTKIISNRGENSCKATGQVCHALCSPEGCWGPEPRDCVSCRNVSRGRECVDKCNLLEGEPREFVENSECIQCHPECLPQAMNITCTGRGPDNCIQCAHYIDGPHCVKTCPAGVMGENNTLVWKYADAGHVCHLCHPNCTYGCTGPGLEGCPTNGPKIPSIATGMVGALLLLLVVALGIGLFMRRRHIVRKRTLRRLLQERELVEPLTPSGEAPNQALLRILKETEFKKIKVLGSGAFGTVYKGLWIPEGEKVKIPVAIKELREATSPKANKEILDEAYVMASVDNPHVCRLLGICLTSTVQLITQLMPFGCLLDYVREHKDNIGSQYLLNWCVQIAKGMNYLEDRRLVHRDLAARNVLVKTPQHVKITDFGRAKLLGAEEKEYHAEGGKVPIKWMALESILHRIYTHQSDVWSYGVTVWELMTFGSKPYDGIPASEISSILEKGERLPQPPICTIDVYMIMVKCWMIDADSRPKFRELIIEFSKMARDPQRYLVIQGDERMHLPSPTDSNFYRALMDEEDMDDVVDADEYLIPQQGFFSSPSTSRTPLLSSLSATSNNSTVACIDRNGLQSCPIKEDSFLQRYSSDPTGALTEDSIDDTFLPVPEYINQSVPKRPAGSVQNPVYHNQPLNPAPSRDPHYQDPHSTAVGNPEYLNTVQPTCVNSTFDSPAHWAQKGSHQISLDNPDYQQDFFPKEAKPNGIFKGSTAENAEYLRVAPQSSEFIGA
In general terms: Time-resolved FRET reads energy transfer from a long-lived donor to a nearby acceptor.

In assay [1] the test system is EGFR mutant L858R/T790M Ba/F3 cells. As to the kind of experiment: Ba/F3 cell proliferation model (Cell Titer Glo), EGFR L858R/T790M. Type of assay: cell-based, murine. The following applies: 72 hours. The method, boiled down: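 Retrovirally transduced Ba/F3 cells exposed 72 h to compound alone or with 1 μg/mL cetuximab, triplicate points, repeated at least three times. Viability by Cell Titer Glo luminescence (ATP); curves fitted by non-linear sigmoidal dose-response regression.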

The target of the next assay is EGFR L858R/T790M (Homo sapiens (Human), UniProt P00533, L858R/T790M). Put plainly: HTRF-based EGFR biochemical assay (L858R/T790M). The following applies: 100 μM ATP, enzyme 0.02 nM. In a few lines: as §1
EGFR L858R/T790M, sequence (P00533 25-1210 T790M/L858R): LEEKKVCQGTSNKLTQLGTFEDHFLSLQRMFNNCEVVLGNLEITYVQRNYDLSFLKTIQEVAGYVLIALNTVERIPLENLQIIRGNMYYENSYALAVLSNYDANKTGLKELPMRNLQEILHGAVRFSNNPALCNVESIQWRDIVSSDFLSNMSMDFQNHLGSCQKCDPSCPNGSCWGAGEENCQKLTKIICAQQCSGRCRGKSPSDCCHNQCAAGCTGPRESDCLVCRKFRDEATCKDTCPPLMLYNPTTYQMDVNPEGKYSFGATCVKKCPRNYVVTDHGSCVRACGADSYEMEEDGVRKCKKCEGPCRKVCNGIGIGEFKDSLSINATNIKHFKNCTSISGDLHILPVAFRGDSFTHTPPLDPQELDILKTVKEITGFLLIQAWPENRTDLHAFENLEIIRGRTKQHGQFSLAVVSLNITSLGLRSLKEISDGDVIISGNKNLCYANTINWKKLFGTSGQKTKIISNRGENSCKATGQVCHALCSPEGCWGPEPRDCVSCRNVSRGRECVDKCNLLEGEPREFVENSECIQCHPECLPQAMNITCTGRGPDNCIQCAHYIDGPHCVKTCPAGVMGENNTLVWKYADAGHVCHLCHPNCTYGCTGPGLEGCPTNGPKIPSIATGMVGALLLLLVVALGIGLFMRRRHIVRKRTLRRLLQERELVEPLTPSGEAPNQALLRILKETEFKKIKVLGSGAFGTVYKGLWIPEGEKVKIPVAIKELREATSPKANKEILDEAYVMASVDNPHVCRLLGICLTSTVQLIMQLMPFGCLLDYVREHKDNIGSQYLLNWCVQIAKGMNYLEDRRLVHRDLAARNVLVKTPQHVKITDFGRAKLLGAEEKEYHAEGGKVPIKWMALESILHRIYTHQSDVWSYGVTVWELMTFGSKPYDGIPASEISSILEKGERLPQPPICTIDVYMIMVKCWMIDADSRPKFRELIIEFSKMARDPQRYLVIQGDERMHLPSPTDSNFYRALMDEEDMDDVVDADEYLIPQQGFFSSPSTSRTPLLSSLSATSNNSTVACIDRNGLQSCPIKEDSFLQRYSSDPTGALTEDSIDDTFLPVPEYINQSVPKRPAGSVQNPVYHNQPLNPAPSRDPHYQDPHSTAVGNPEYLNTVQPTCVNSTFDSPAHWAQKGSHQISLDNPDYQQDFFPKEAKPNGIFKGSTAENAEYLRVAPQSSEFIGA
The subject of assay [2] is EGFR mutant L858R Ba/F3 cells. As to the kind of experiment: Ba/F3 cell proliferation model (Cell Titer Glo), EGFR L858R. Type of assay: cell-based, murine. The following applies: 72 hours. An excerpt: Example 26: Ba/F3 Cell Proliferation Models
The EGFR mutant L858R and L858R/T790M Ba/F3 cells have been previously described (Zhou, W., et al. Nature 462, 2009, 1070-1074). All cell lines were maintained in RPM 1640 (Cellgro; Mediatech Inc., Herndon. CA) supplemented with 10% FBS, 100 units/mL penicillin, 100 units/mL streptomycin. The EGFR I941R mutation was introduced via site directed mutagenesis using the Quick Change Site-Directed Mutagenesis kit (Stratagene; La Jolla, CA) according to the manufacturer's instructions. All constructs were confirmed by DNA sequencing. The constructs were shuttled into the retroviral vector JP1540 using the Cre-recombination system (Agilent Technologies, Santa Clara, CA). Ba/F3 cells were then infected with retrovirus per standard protocols, as described previously (Zhou, et al, Nature 2009). Stable clones were obtained by selection in puromycin (2 μg/ml).
Growth and inhibition of growth was assessed by the Cell Titer Glo® assay (Promega, Madison, WI) and was performed according to the manufacturer's instructions. The Cell Titer Glo® assay is a luminescence-based method used to determine the number of viable cells based on quantitation of the ATP present, which is directly proportional to the amount of metabolically active cells present. Ba/F3 cells of different EGFR genotypes were exposed to compounds as a single agent or in combination with 1 μg/mL cetuximab for 72 hours and the number of cells used per experiment was determined empirically as has been previously established (Zhou, et al., Nature 2009). All experimental points were set up in triplicates in 384-well plates and all experiments were repeated at least three times. […] The curves were fitted using a non-linear regression model with a sigmoidal dose response.

Setting [3] is: Mus musculus, BaF3, single agent, read-out: Cell IC50 BaF3 EGFR L858R/T790M.
[4] abbreviates: Mus musculus, BaF3, single agent, read-out: Cell IC50 BaF3 EGFR L858R.
Where [5] appears, read: in combination with 1 μg/mL cetuximab, read-out: Cell IC50 BaF3 EGFR L858R/T790M (+cetux.).
Setting [6] is: in combination with 1 μg/mL cetuximab, read-out: Cell IC50 BaF3 EGFR L858R (+cetux.).

Structures can show the parent of a compound that is named as a salt. Where two headings read alike, the source gives them in different places.

Regarding `CN1CCC(c2ccc(-c3cc4nn(C(c5nc6ccccc6[nH]5)c5cc(F)ccc5O)cc4cc3F)cc2)CC1` (stereo not drawn) [Compound 118, 2-((1H-Benzo[d]imidazol-2-yl)(5-fluoro-6-(4-(1-methylpiperidin-4-yl)phenyl)-2H-indazol-2-yl)methyl)-4-fluorophenol], the IC50 at EGFR L858R turned out to be 16 nM; in assay [1] (setting [3]) it was 1310 nM; at EGFR L858R/T790M, 6 nM; in assay [2] (setting [4]), 4080 nM.
Take `Cc1c(-c2ccc(C3CCN(C)CC3)cc2)ccc2c1C(=O)N(C(c1nc3ccccc3[nH]1)c1cc(F)ccc1O)C2` (stereo not drawn) [Compound 082, 2-[1H-benzimidazol-2-yl-(5-fluoro-2-hydroxy-phenyl)methyl]-7-methyl-6-[4-(1-methyl-4-piperidyl)phenyl]isoindolin-1-one; dihydrochloride]: the IC50 against EGFR L858R was 3 nM; in assay [1] (setting [3]) it was 220 nM; in assay [1] (setting [5]), 20 nM; at EGFR L858R/T790M, 0.6 nM; in assay [2] (setting [4]), 670 nM.
For `CN1CCC(c2ccc(-c3cc(F)c4c(=O)n(C(c5ccccc5)c5nc6ccccc6[nH]5)ccc4c3)cc2)CC1` (stereo not drawn) [Compound 064, 2-[1H-benzimidazol-2-yl(phenyl)methyl]-8-fluoro-6-[4-(1-methyl-4-piperidyl)phenyl]-isoquinolin-1-one; dihydrochloride], in that order: 31 nM, 220 nM, 20 nM, 20 nM and 670 nM.
On to `CN1CCC(c2ccc(-c3ccc4c(=O)n(C(c5nc6ccccc6[nH]5)c5cc(F)ccc5O)ccc4c3)cc2)CC1` (racemic) [Compound 069, Rac-2-(1H-1,3-benzodiazol-2-yl)(5-fluoro-2-hydroxyphenyl)methyl]-6-[4-(1-methylpiperidin-4-yl)phenyl]-1,2-dihydroisoquinolin-1-one], for which the IC50 against EGFR L858R came to 9 nM; in assay [1] (setting [3]), 520 nM; in assay [1] (setting [5]) it was 10 nM; against EGFR L858R/T790M it was 5 nM; in assay [2] (setting [4]) it was 360 nM.
As for `CN1CCC(c2ccc(-c3ccc4c(c3)C(=S)N([C@@H](c3nc5ccccc5[nH]3)c3cc(F)ccc3O)C4)cc2)CC1` (single isomer, unassigned) [Compound 083], the IC50 on EGFR L858R was 1 nM; in assay [1] (setting [3]) it was 200 nM; on EGFR L858R/T790M it was 0.6 nM; in assay [2] (setting [4]), 630 nM.
For `CN1CCC(c2ccc(-c3ccc4ccn(C(c5nc6ccccc6[nH]5)c5cc(F)ccc5O)c(=O)c4c3)cc2)CC1` (stereo not drawn) [Compound 063, 2-[1H-benzimidazol-2-yl-(5-fluoro-2-hydroxy-phenyl)methyl]-7-[4-(1-methyl-4-piperidyl)phenyl]isoquinolin-1-one], the IC50 at EGFR L858R was found to be 9 nM; in assay [1] (setting [3]), 890 nM; in assay [1] (setting [5]) it was 50 nM; against EGFR L858R/T790M, 2 nM; in assay [2] (setting [4]) it was 1050 nM.
Regarding `CN1CCC(c2ccc(-c3ccc4c(c3F)C(=O)N(C(c3nc5ccccc5[nH]3)c3cc(F)ccc3O)C4)cc2)CC1` (stereo not drawn) [Compound 032, 2-[1H-benzimidazol-2-yl-(5-fluoro-2-hydroxy-phenyl)methyl]-7-fluoro-6-[4-(1-methyl-4-piperidyl)phenyl]isoindolin-1-one;hydrochloride], the IC50 in assay [1] (setting [3]) is 210 nM; in assay [1] (setting [5]) it was 7 nM; in assay [2] (setting [4]), 960 nM; in assay [2] (setting [6]), 50 nM.
`CN1CCC(c2ccc(-c3ccc4c(c3)C(=O)N(C(c3nc5cccc(F)c5[nH]3)c3cc(F)ccc3O)C4)cc2)CC1` (stereo not drawn) [Compound 020, 2-[(7-Fluoro-1H-benzimidazol-2-yl)-(5-fluoro-2-hydroxy-phenylmethyl]-6-(4-(1-methy-4-piperidyl)phenyl]isoindolin-1-one; hydrochloride]: the IC50 in assay [1] (setting [3]) was determined as 440 nM; in assay [1] (setting [5]), 6 nM; in assay [2] (setting [4]), 1360 nM; in assay [2] (setting [6]) it was 170 nM.

The values are drawn from patent publication US12391671B2, “Allosteric EGFR inhibitors and methods of use thereof” (Dana-Farber Cancer Institute, Inc., priority 2019, dated 2025).
